Experiment [1] concerns APP(Thr668) phosphorylation. In words: APP(Thr668) phosphorylation by western blotting in APP695 adenovirus-infected hippocampus primary culture nerve cells. It counts as cell-based, rat. To be noted: for concentration at which APP phosphorylation suppressing action was found / APP phosphorylation suppressing action: rat hippocampus primary culture nerve cells, human APP695 adenovirus, 1 day of treatment; for expressed amount of total APP detected with anti-APP antibody 22C11: same cells and treatment, Alsterpaullone 10 μM, Roscovitine 50 μM. Here is the method:
The APP gene-containing recombinant adenovirus vector was converted into linear strand by PacI treatment and introduced into HEK293 cells by the Lipofectamine method (LIFE TECHNOLOGIES), and 3 to 5 days thereafter when cells were pealed off from the plate, all of the cells were recovered. The recombinant adenovirus was obtained from the supernatant by repeating freezing-thawing step of the cells. The thus obtained recombinant adenovirus was prepared in a large amount by repeating infection of HEK293 cells and then concentrated and purified by the CsCl method and used in the test.
The thus obtained PVDF membrane was soaked in Block Ace (Daiichi Pure Chemicals) at 4° C. overnight to carry out blocking. […] The anti-serum obtained by the immunization was used by subjecting to adsorption treatment using an immunogen peptide before introduction of phosphate group and then purifying by affinity chromatography using the phosphate group-introduced antigen peptide. Also, an anti-APP monoclonal antibody 22C11 (Roche Molecular Biochemicals) was used in the determination of total APP amount (combined APP amount of phosphorylated state of APP and non-phosphorylated state of APP). […] After completion of the reaction, washing with PBS-T at room temperature for 10 minutes was repeated four times and then this was subjected to the reaction with a secondary antibody. As the secondary antibody, 20,000 times diluted HRP-labeled anti-rabbit and anti-mouse IgG antibodies (Amersham Pharmacia Biotech) were used.
For orientation: Immunoblotting shows a protein as a band on a membrane.

Experiment [2] relates to Aβ1-40 production. The experiment in a line: Aβ1-40 production, sandwich ELISA of culture supernatant of APP695 adenovirus-infected hippocampus primary culture nerve cells.
Description: The fetus was sterilized with ethanol for disinfection in a clean bench, the total brain was extracted and recovered in a dish containing a serum-free medium (SUMILON, Sumitomo Bakelite), and the hippocampus was extracted using a precision pincette under a stereoscopic microscope. The hippocampus was transferred into a 50 ml tube, tissues were precipitated by standing to discard the supernatant by aspirating and a cell dispersing solution (PBS containing 1% papain, 150 U/ml DNase I, 0.02% L-cysteine, 0.02% BSA and 0.5% glucose) was added thereto, and the mixture was incubated at 37° C. for 15 minutes and then centrifuged (1,000 rpm, 4° C., 5 min). The supernatant was removed by aspiration, 10 ml of the serum-free medium was added to the sediment, pipette treatment was carried out several times, and then cell masses were removed using a filter to obtain a cell suspension. The number of cells was counted using trypan blue, and 1.5×10^5 of the cells were inoculated into a poly-L-lysine-coated 48 well culture plate. In order to effect sufficient differentiation, they were cultured at 37° C. for 10 days in a CO2 incubator and then used in the test.
Infection with adenovirus was carried out on the 10th day of the culturing. A virus suspension of 1.5×10^8 particles was suitably diluted and added to a medium to an MOI (multiplicity of infection) value of 1,000 based on 1.5×10^5 cells. A sample was recovered on the 4th day of the infection.
Culture supernatants recovered 24 hours after the addition of compounds to be tested were used as the samples for Aβ production measurement. Amount of Aβ in each supernatant was determined by sandwich ELISA. Firstly, an anti-Aβ monoclonal antibody 6E10 (Wako) diluted to 10 μg/ml with 100 mM phosphate buffer was dispensed in 50 μl/well portions into a plate for ELISA (Maxisorp, Nunc) and allowed to stand overnight at 4° C. to effect adhesion of the 6E10 antibody to the plate. The antibody was recovered on the next day, and 200 μl of Block Ace was added to each well to carry out blocking at 4° C. overnight or more. […] The Aβ for calibration curve preparation was prepared in the following manner. […] A 10 μl portion of the stock solution was transferred into a tube, HFIP was evaporated using a vacuum concentrator and then the residue was again dissolved in 10 μl of DMSO to an Aβ concentration of 1 mg/ml. Serial dilutions of the solution for Aβ calibration curve measurement were prepared within the range of from 0.2 to 10 ng/ml. The plate after the reaction with a sample or Aβ for calibration curve preparation was washed 4 times with the plate washer and then allowed to react with primary antibodies. Polyclonal antibodies R163 (Aβ1-40 specific antibody) and R165 Aβ1-42 specific antibody), which specifically recognize C-terminus of Aβ, were used as the primary antibodies. […] Each antibody was diluted 1,000 times with TBS-T containing 25% Block Ace, dispensed in 60 μl/well portions into the plate and then allowed to undergo the reaction at room temperature for 2 hours. After the reaction, the plate was washed 4 times using the plate washer and then the reaction with a secondary antibody was carried out. An HRP-labeled anti-rabbit IgG antibody was used as the secondary antibody, diluted 8,000 times with TBS-T containing 25% Block Ace and dispensed in 60 μl/well portions, and then the reaction was carried out at room temperature for 2 hours. After completion of the reaction, the plate was washed 4 times using the plate washer and then chemiluminescence by a POD chemiluminescence reagent (Boehringer Mannheim) was measured by ML3000 Plate Reader (Dynatech Laboratories).
Experiment [3] concerns the target T1, Cdk5 and p25 (Homo sapiens, UniProt Q00535).
T1 construct: Complete length of the human Cdk5 gene was amplified from total RNA; made in house; host or cells: Sf9 insect cells (baculovirus)
The experiment in a line: Cdk5 kinase inhibitory activity, SPA method with biotinylated histone and 33P-ATP. The format is biochemical. To be noted: recombinant human Cdk5/p25 1:1, SPA method. Here is the method:
The total RNA was obtained by adding 1 ml of ISOGEN reagent (Nippon Gene) to 1×10^6 cells, mixing the resulting lysate with ⅕ volume of chloroform, centrifuging the mixture at 15,000 rpm for 10 minutes, mixing the resulting supernatant with ½ volume of 2-propanol and further centrifuging the mixture at 15,000 rpm for 20 minutes. The thus obtained RNA was dissolved in water and, after measurement of its concentration, subjected to PCR reaction (Titans one tube RT-PCR kit (Boehringer Mannheim)). […] Each of the genes was introduced into a Bacmid preparation vector pFASTBac-Hta (Gibco BRL) which had been designed such that His-tag is added to N-terminus, making use of the HindIII and BamHI sites designed in the primers. Each of the genes introduced into pFASTBac was introduced into DH10Bac to carry out recombination in E. coli, thereby obtaining respective recombinant Bacmids. The thus obtained Bacmid was introduced into Sf9 cells using cellfectin reagent (Gibco BRL) to obtain baculovirus. […] Purification of the recombinant proteins was carried out making use of the 6× His tag added to the N-terminus.
After though washing with the buffer A, this was washed with a buffer B (20 mM Tris-HCl, 1 M KCl, 10 mM 2-ME, 10% glycerol). Finally, fractions eluted with a buffer C (20 mM Tris-HCl, 100 mM KCl, 100 mM imidazole, 10 mM 2-ME, 10% glycerol) were recovered, dialyzed against a sample solution (50 mM HEPES-KOH, 10 mM MgCl2, 2.5 mM EGTA, 0.1 mM PMSF) and used as a purified preparation.
A 1:1 mixture of the purified Cdk5 protein and purified p25 obtained above was used as the enzyme source at the time of kinase activity measurement. Histone HI (Sigma) was biotinylated and used as the substrate. Biotinylated histone was prepared by allowing histone to react with 10 equivalents of biotin (Ez-link Sulfo-NHS-LC-Biotin, Pierce) as molar ratio in the presence of 50 mM sodium bicarbonate at room temperature for 6 hours. Free biotin was removed by carrying out dialysis using TBS, and the resulting solution was used as the stock solution. Measurement of kinase activity was carried out in accordance with the SPA method (Amersham). […] This was allowed to stand at room temperature for 15 minutes and centrifuged (1,700 rpm, 2 min), and then amount of the isotope incorporated in the substrate was measured by Topcount […].

In experiment [4] the test system is Aβ1-42 production. In words: Aβ1-42 production, sandwich ELISA of culture supernatant of APP695 adenovirus-infected hippocampus primary culture nerve cells. It counts as cell-based, rat. To be noted: culture supernatant after 1 day of treatment, control DMSO (FIG. 4). A general note: An ELISA detects its analyte on a solid surface through an enzyme-linked reagent.

Setting [5] is: culture supernatant after 1 day of treatment, control DMSO (FIG. 3, FIG. 5).

T1 sequence (Q00535 2-292): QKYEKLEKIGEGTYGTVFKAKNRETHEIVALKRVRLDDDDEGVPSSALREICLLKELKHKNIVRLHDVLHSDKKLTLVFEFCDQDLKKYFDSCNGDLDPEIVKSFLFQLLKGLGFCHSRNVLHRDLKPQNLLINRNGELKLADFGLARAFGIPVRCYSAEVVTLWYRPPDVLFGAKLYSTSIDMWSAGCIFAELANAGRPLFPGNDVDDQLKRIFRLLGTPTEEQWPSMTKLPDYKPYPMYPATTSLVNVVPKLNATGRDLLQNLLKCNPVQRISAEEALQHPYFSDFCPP
T1 sequence (Q15078 99-307 partner limits assumed): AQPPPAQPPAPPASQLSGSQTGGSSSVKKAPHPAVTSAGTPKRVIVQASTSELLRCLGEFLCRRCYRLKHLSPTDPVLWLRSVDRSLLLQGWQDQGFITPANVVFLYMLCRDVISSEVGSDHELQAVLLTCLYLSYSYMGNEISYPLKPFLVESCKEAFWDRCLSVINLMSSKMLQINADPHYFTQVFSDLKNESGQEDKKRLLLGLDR

For the compound `CC[C@H](CO)Nc1nc(NCc2ccccc2)c2ncn(C(C)C)c2n1` [Roscovitine, reference compound], in experiment [1], the “concentration at which APP phosphorylation suppressing action was found” value was determined as 50 µM and the “expressed amount of total APP detected with anti-APP antibody 22C11” value is “no changes”. The Aβ1-40 production entry in experiment [2] (setting [5]) is “confirmed”.
Turning to “Cdk5 D144N: dominant negative mutant of Cdk5 (144th aspartic acid converted into asparagine), expressed from adenovirus vector”, the Aβ1-40 production entry in experiment [2] (cells on 7th day co-infected with APP695 adenovirus and Cdk5 D144N adenovirus, supernatant 2 days later, control GFP adenovirus) was “suppressed”.
With `O=C1Cc2c([nH]c3ccc([N+](=O)[O-])cc23)-c2ccccc2N1` [Alsterpaullone, reference compound], in experiment [3], the Cdk5 inhibitory activity entry was “verified the Cdk5 inhibitory activity”. Also, in experiment [1], the “concentration at which APP phosphorylation suppressing action was found” value came to 10 µM and the “expressed amount of total APP detected with anti-APP antibody 22C11” value is on record as “no changes”. In experiment [2] (setting [5]), the Aβ1-40 production entry is reported as “suppressed”. The Aβ1-42 production result in experiment [4] is “suppressed”.
For `N[C@H]1CC[C@H](Nc2nc(Nc3cccc(Cl)c3)c3ncn(C4CCCC4)c3n2)CC1` [D], the Cdk5 inhibitory activity entry in experiment [3] was “verified the Cdk5 inhibitory activity”. Also, the “APP phosphorylation suppressing action” value in experiment [1] is recorded as “found”. The Aβ1-40 production result in experiment [2] (setting [5]) is “confirmed”.
For `CCn1cnc2c(Nc3cccc(OC)c3)nc(NC3CCC(N)CC3)nc21` (stereo not drawn) [B] the same measures were “verified the Cdk5 inhibitory activity”, “found” and “confirmed”.
For `CCn1cnc2c(Nc3cccc(OC)c3)nc(N[C@H]3CC[C@H](O)CC3)nc21` [C] the same measures were “verified the Cdk5 inhibitory activity”, “found” and “confirmed”.
In the same order, the values of `CCn1cnc2c(Nc3cccc(OC)c3)nc(N[C@@H]3CCCC[C@@H]3N)nc21` [A] are “verified the Cdk5 inhibitory activity”, “found” and “confirmed”.

The values are drawn from patent publication US20030100477A1, “Medicinal compositions for suppressing beta-amyloid production” (priority 2002, published 2003).
